Source: ChEMBL document CHEMBL1201862, “PubChem BioAssay data set” (2004)
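These data come from cells grown in 96-well plates and exposed to compound for 48 hours at five concentrations. The concentration for 50% growth inhibition is given as GI50.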 The source made the active and inactive calls. Cut-off read from the data, not from the text of the source: active = GI50 up to about 1.1 µM and inactive = higher.

Experiments:
Assay in all cases: DTP human tumour cell line panel, 48 h
[1] = tested on: UACC-257
[2] = tested on: A549
[3] = tested on: HOP-62
[4] = tested on: SK-MEL-2
[5] = tested on: KM12
[6] = tested on: CCRF-CEM
[7] = tested on: HCT-15
[8] = tested on: HL-60
[9] = tested on: SNB-75
[10] = tested on: OVCAR-8
[11] = tested on: Malme-3M
[12] = tested on: MOLT-4
[13] = tested on: SF-295
[14] = tested on: K562
[15] = tested on: SW-620
[16] = tested on: NCI-H23
[17] = tested on: SR
[18] = tested on: EKVX
[19] = tested on: PC-3
[20] = tested on: NCI/ADR-RES

| Structure (SMILES) | GI50 [1] | GI50 [2] | GI50 [3] | GI50 [4] | GI50 [5] | GI50 [6] | GI50 [7] [µM] | GI50 [8] | GI50 [9] | GI50 [10] | GI50 [11] | GI50 [12] | GI50 [13] | GI50 [14] | GI50 [15] | GI50 [16] | GI50 [17] | GI50 [18] | GI50 [19] | GI50 [20] |
| --- | --- | --- | --- | --- | --- | --- | --- | --- | --- | --- | --- | --- | --- | --- | --- | --- | --- | --- | --- | --- |
| NCCCOc1ccc([N+](=O)[O-])cc1Cl | > 100 µM (inactive) | > 100 µM (inactive) | 71.1 µM (inactive) | > 100 µM (inactive) | > 100 µM (inactive) | 42.9 µM (inactive) | > 100 | > 100 µM (inactive) | 61.1 µM (inactive) | > 100 µM (inactive) | > 100 µM (inactive) | > 100 µM (inactive) | > 100 µM (inactive) | 85.9 µM (inactive) | > 100 µM (inactive) | > 100 µM (inactive) | > 100 µM (inactive) |  |  |  |
| COc1ccc(NC(=O)CC(=O)N2N=C(N(CCC#N)c3ccccc3Cl)CC2c2ccccc2)cc1 (stereo unspecified) | > 100 µM (inactive) | > 100 µM (inactive) | > 100 µM (inactive) | > 100 µM (inactive) | > 100 µM (inactive) | > 100 µM (inactive) | > 100 | > 100 µM (inactive) | > 100 µM (inactive) | > 100 µM (inactive) | > 100 µM (inactive) | > 100 µM (inactive) | > 100 µM (inactive) | > 100 µM (inactive) | > 100 µM (inactive) | > 100 µM (inactive) | > 100 µM (inactive) | > 100 µM (inactive) |  |  |
| COC(=O)C1=C(C(=O)OC)C(C(=O)OC)C(C(=O)OC)C(C(=O)OC)(C(=O)OC)C(C(=O)OC)=C1C(=O)OC (stereo unspecified) | 13.9 µM (inactive) | 21.2 µM (inactive) | 32.3 µM (inactive) | 17.9 µM (inactive) | 17.1 µM (inactive) | 2.77 µM (inactive) | 8.39 | 1.97 µM (inactive) | 19.2 µM (inactive) | 11.8 µM (inactive) | 5.77 µM (inactive) | 2.59 µM (inactive) | 19.2 µM (inactive) | 3.4 µM (inactive) | 5.08 µM (inactive) | 18.6 µM (inactive) | 0.285 µM (active) | 18.3 µM (inactive) | 16.5 µM (inactive) |  |
| O=C(O)C1=Cc2cccc3cccc(c23)C1=O | > 100 µM (inactive) | > 100 µM (inactive) | > 100 µM (inactive) | > 100 µM (inactive) | > 100 µM (inactive) | > 100 µM (inactive) | > 100 | > 100 µM (inactive) | > 100 µM (inactive) | > 100 µM (inactive) | > 100 µM (inactive) | > 100 µM (inactive) | > 100 µM (inactive) | > 100 µM (inactive) | > 100 µM (inactive) | > 100 µM (inactive) | > 100 µM (inactive) | > 100 µM (inactive) |  |  |
| O=C(N/C(=C\c1cc(Cl)ccc1Cl)c1nc2cc(Cl)ccc2[nH]1)c1ccccc1 | 15 µM (inactive) | 16.8 µM (inactive) | 18 µM (inactive) | 13.7 µM (inactive) | 15.4 µM (inactive) | 17 µM (inactive) | 16.4 | 14.3 µM (inactive) | 19.1 µM (inactive) | 16.1 µM (inactive) | 18.9 µM (inactive) | 8.04 µM (inactive) | 16.1 µM (inactive) | 15.5 µM (inactive) | 16.9 µM (inactive) | 13 µM (inactive) | 5.43 µM (inactive) | 23 µM (inactive) |  |  |
| CC1(C)CC(=O)C(=CNC(=S)c2ccccc2)C(=O)C1 | > 100 µM (inactive) | > 100 µM (inactive) | > 100 µM (inactive) | > 100 µM (inactive) | > 100 µM (inactive) | 27 µM (inactive) | > 100 | 32.3 µM (inactive) | > 100 µM (inactive) | > 100 µM (inactive) |  | 13.6 µM (inactive) | > 100 µM (inactive) |  | > 100 µM (inactive) | > 100 µM (inactive) |  | > 100 µM (inactive) | > 100 µM (inactive) | > 100 µM (inactive) |
| CCOC(C)C(/C=N/NC(N)=S)=NNC(N)=S (stereo unspecified) [GLOXAZONE] | < 0.0411 µM (active) | > 100 µM (inactive) | > 100 µM (inactive) | 29.1 µM (inactive) | > 100 µM (inactive) | < 0.0208 µM (active) | > 100 | 0.0531 µM (active) | 40.3 µM (inactive) | > 100 µM (inactive) | 92.3 µM (inactive) | < 0.0254 µM (active) | 1.64 µM (inactive) | < 0.0195 µM (active) | > 100 µM (inactive) | > 100 µM (inactive) | < 0.0251 µM (active) | 0.248 µM (active) |  |  |
| C=CCCCN1CCCCC1=S | > 100 µM (inactive) | > 100 µM (inactive) | > 100 µM (inactive) | > 100 µM (inactive) | > 100 µM (inactive) | > 100 µM (inactive) | > 100 | > 100 µM (inactive) | 36.5 µM (inactive) | > 100 µM (inactive) | > 100 µM (inactive) | > 100 µM (inactive) | > 100 µM (inactive) | > 100 µM (inactive) | > 100 µM (inactive) | > 100 µM (inactive) | > 100 µM (inactive) | > 100 µM (inactive) |  |  |
| Cc1ccc(Cl)c2c(=O)cc(-c3ccccc3)[nH]c12 | 58.1 µM (inactive) | 46.3 µM (inactive) | 54.3 µM (inactive) | 47.9 µM (inactive) | 25.4 µM (inactive) | 52.7 µM (inactive) | 46.2 | 48.5 µM (inactive) | 28.8 µM (inactive) | > 100 µM (inactive) | 51.6 µM (inactive) | 32.9 µM (inactive) | 55.8 µM (inactive) | 49.2 µM (inactive) | 67.5 µM (inactive) | 59.7 µM (inactive) | 25.1 µM (inactive) |  |  |  |
| COc1cc(CNc2nc3cc(C(F)(F)F)ccc3nc2C)cc(OC)c1OC | 16.6 µM (inactive) | 28.4 µM (inactive) | 24.3 µM (inactive) |  | 15.9 µM (inactive) | 20.3 µM (inactive) | 13.1 | 16.5 µM (inactive) | 19.4 µM (inactive) | 23.7 µM (inactive) | 17.5 µM (inactive) | 10.9 µM (inactive) | 19.1 µM (inactive) | 23 µM (inactive) | 17.1 µM (inactive) | 18.9 µM (inactive) | 14.5 µM (inactive) | 17 µM (inactive) |  | > 10 µM (inactive) |
| COc1cccc(CSCC(=O)O)c1 | > 100 µM (inactive) | > 100 µM (inactive) | > 100 µM (inactive) | > 100 µM (inactive) | > 100 µM (inactive) |  | > 100 |  | > 100 µM (inactive) | > 100 µM (inactive) | > 100 µM (inactive) |  | > 100 µM (inactive) | > 100 µM (inactive) | > 100 µM (inactive) | > 100 µM (inactive) |  | > 100 µM (inactive) | > 100 µM (inactive) | > 100 µM (inactive) |
| COC(=O)[C@@]12OC[C@]34C([C@@H](O)C1O)[C@@]1(C)CC(=O)C(OC(=O)CC(C)C(F)(F)F)=C(C)C1C[C@H]3OC(=O)[C@H](O)[C@H]42 (stereo partly specified) | 2.93 µM (inactive) | 17.3 µM (inactive) | 15 µM (inactive) | 2.95 µM (inactive) | 11.2 µM (inactive) | 4.03 µM (inactive) | > 62.5 | 0.268 µM (active) | 2.11 µM (inactive) | 4.71 µM (inactive) | 0.215 µM (active) | 0.771 µM (active) | 5.16 µM (inactive) | 6.05 µM (inactive) | 1.21 µM (inactive) | 1.38 µM (inactive) | 2.73 µM (inactive) | 26.5 µM (inactive) |  |  |
| O=C(c1nc2ccc(Cl)cc2[nH]c1=O)C(O)c1cccc([N+](=O)[O-])c1 (stereo unspecified) | > 100 µM (inactive) | > 100 µM (inactive) | > 100 µM (inactive) | > 100 µM (inactive) | 57 µM (inactive) | 5.06 µM (inactive) | > 100 | 19.8 µM (inactive) | > 100 µM (inactive) | > 100 µM (inactive) | > 100 µM (inactive) | 35.9 µM (inactive) | > 100 µM (inactive) | 28.6 µM (inactive) |  | > 100 µM (inactive) | 85.7 µM (inactive) | > 100 µM (inactive) |  |  |
| C[C@@](Br)(C(=O)O)[C@H](Br)C(=O)O | > 100 µM (inactive) | > 100 µM (inactive) | > 100 µM (inactive) |  | > 100 µM (inactive) | > 100 µM (inactive) | > 100 | > 100 µM (inactive) | 81.3 µM (inactive) | > 100 µM (inactive) | > 100 µM (inactive) | > 100 µM (inactive) | > 100 µM (inactive) | > 100 µM (inactive) | > 100 µM (inactive) | > 100 µM (inactive) |  | 83.4 µM (inactive) | > 100 µM (inactive) | > 100 µM (inactive) |
| COc1ccc(Cc2c(N)[nH]c(=O)[nH]c2=O)cc1 | > 100 µM (inactive) | > 100 µM (inactive) | > 100 µM (inactive) | > 100 µM (inactive) | > 100 µM (inactive) |  | > 100 |  | > 100 µM (inactive) | > 100 µM (inactive) | > 100 µM (inactive) |  | > 100 µM (inactive) | > 100 µM (inactive) | > 100 µM (inactive) | > 100 µM (inactive) |  | > 100 µM (inactive) | > 100 µM (inactive) | > 100 µM (inactive) |
| O=C(O)/C(Cl)=C(Cl)/C=N/NC(=O)c1cc2ccccc2cc1O | 15.5 µM (inactive) | 9.18 µM (inactive) | 36.6 µM (inactive) | 16 µM (inactive) | 36.8 µM (inactive) | 4.86 µM (inactive) | 19.4 | 5.42 µM (inactive) | 3.38 µM (inactive) | 19.7 µM (inactive) | 37.2 µM (inactive) | 5.89 µM (inactive) | 11.9 µM (inactive) | 6.11 µM (inactive) | 17.3 µM (inactive) | 8.57 µM (inactive) | 9.55 µM (inactive) | 30.2 µM (inactive) |  |  |
